Patent publication US9145415B2, “Nitrogen-containing heterocyclic compound or salt thereof” (FUJIFILM Corporation, priority 2012, dated 2015)
Like-named read-outs stand apart in the source and are kept apart here.

How the values were obtained:
[1] = test system: Molm-13 cells; assay: Leukemia cell proliferation inhibition test (ATPlite), Molm-13; assay type: cell-based; settings: Molm-13, 72 hours culture, ATPlite, GI50 per method, read-out: MOLM13 cell proliferation inhibition effect
Procedure: (§1) A leukemia cell proliferation inhibition test was performed for the compounds of the present invention by using the leukemia cell strains MV4-11 (ATCC Number, CRL-9591) and Molm-13 (DSMZ Number, ACC554).
(§2) The leukemia cell proliferation inhibition test was performed by the method described below.
(§3) For the purpose of measuring proliferation inhibition attained with a compound, the total cell count was quantified on the basis of the total cellular ATP concentration using the ATPlite (PerkinElmer) reagent utilizing firefly luciferase. The Molm-13 or MV4-11 cells were added to the RPMI medium containing penicillin and streptomycin (penn/strep) and 10% FBS at a density of 2×10^5 cells/ml, and 50 μL (10,000 cells) of the cell suspension was inoculated to each well of a 96-well plate (Corning).
(§4) A serially diluted solution of a compound or 0.1% DMSO (solvent control) in a volume of 50 μL was added to the cells, and then the cells were cultured for 72 hours under the standard cell proliferation conditions (37° C., 5% CO2) to allow proliferation of the cells. In order to measure the proliferation of the total cells, equal volume of the ATPlite reaction mixture was added to each well in accordance with the instructions attached to ATPlite, and then luminescence count of the well was measured (relative light unit, RLU).
(§5) The RLU signal observed with the DMSO solvent control after 72 hours of the culture was defined as a signal indicating 0% inhibition, and the GI50 value for the proliferation inhibition corresponds to a concentration of a compound that provides 50% inhibition based on the proliferation of the total cells contained in the DMSO solvent control. Each data point was obtained from samples in duplicate. The GI50 values were calculated by the non-linear regression fitting (Fit Model (205)) according to a sigmoid dose-reaction equation using the XLfit software.

[2] = test system: MV4-11 cells; assay: Leukemia cell proliferation inhibition test (ATPlite), MV4-11; assay type: cell-based; settings: MV4-11, 72 hours culture, ATPlite, GI50 per method, read-out: MV4-11 cell proliferation inhibition effect
Procedure: as §1, §2, §3, §4, §5

[3] = molecular target: T1, human FLT3 protein (FLT3 (WT)) (Homo sapiens, UniProt P36888); assay: FLT3 inhibition test (FLT3 enzyme inhibition, time-resolved fluorescence of substrate peptide phosphorylation); assay type: biochemical; settings: GST-fused human FLT3 (564 to 993 aa), ATP 50 μM
T1 construct: human FLT3 protein (intracellular region, 564 to 993 aa); GST; purchased Carna Biosciences; host or cells: baculovirus expression system
T1 sequence (P36888 564-993): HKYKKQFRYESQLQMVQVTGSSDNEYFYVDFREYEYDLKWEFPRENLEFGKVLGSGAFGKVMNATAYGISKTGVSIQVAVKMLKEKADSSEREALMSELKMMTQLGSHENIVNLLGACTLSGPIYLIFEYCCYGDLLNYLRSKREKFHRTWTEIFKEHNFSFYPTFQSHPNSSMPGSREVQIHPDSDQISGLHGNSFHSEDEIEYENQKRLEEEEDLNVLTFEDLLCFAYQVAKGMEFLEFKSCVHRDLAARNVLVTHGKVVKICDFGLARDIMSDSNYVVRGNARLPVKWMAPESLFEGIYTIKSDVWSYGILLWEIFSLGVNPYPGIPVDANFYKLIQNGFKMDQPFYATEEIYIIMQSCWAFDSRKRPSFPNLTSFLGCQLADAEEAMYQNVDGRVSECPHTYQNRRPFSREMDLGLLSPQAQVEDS
Procedure: The FLT3 inhibition test was performed for the compounds of the present invention by the method described below.
A reaction mixture in a volume of 9 μL containing the FLT3 protein and a test compound of a predetermined concentration (1.2 μg of FLT3, 100 mM HEPES, 10 mM MgCl2, 25 mM NaCl, 0.01% BSA, 1 mM DTT, pH 7.5) was left standing at 25° C. for 15 minutes. […] (Toray Industries), and 3 μL (final concentration 50 μM) of ATP (Sigma-Aldrich) were added to the reaction mixture, and the mixture was shaken for 2 minutes, and then further left standing at 25° C. for 30 minutes to allow the enzymatic reaction.

[4] = read-out: FLT3 (WT) enzyme inhibition activity

IC50 ([1]; Homo sapiens, MOLM-13, 72 h) | IC50 ([2]; Homo sapiens, MV4-11, 72 h) | IC50 [3, 4] | IC50 [1] | IC50 [2] | Structure (SMILES) | IC50 ([3]; FLT3 (WT) enzyme inhibition activity)
0.01 to 0.1 µM | 0.01 to 0.1 µM | < 0.01 µM | – | – | CCCNc1nc(Nc2ccc(C(N)=O)cc2)ncc1C(=O)Nc1cccc(NC(=O)C(C)(C)NC(=O)/C=C/CN(C)C)c1 [Compound 3-13] | –
0.1 to 1 µM | 0.1 to 1 µM | < 0.01 µM | – | – | CCCNc1nc(Nc2ccc(C(N)=O)cc2)ncc1C(=O)Nc1ccccc1CNC(=O)[C@H](C)N(C)C(=O)/C=C/CN(C)C [Compound 3-15] | –
> 1 µM | 0.1 to 1 µM | < 0.01 µM | – | – | CCCNc1nc(Nc2ccc(C(N)=O)cc2)ncc1C(=O)Nc1cccc(NC(CNC(=O)/C=C/CN(C)C)C(F)(F)F)c1 (stereo not drawn) [Compound 3-17] | –
> 1 µM | > 1 µM | < 0.01 µM | – | – | CCCNc1nc(Nc2ccc(C(N)=O)cc2)ncc1C(=O)Nc1ccc2nc(CNC(=O)/C=C/CN(C)C)[nH]c2c1 [Compound 3-18] | –
0.1 to 1 µM | 0.01 to 0.1 µM | < 0.01 µM | – | – | CCCNc1nc(Nc2ccc(C(N)=O)cc2)ncc1C(=O)Nc1cccc(NC2CCCN(C(=O)/C=C/CN(C)C)C2)c1 (stereo not drawn) [Compound 3-19] | –
0.1 to 1 µM | 0.01 to 0.1 µM | < 0.01 µM | – | – | CCCNc1nc(Nc2ccc(C(N)=O)cc2)ncc1C(=O)Nc1cccc(NC2CCN(C(=O)/C=C/CN(C)C)C2)c1 (stereo not drawn) [Compound 3-20] | –
0.1 to 1 µM | 0.1 to 1 µM | < 0.01 µM | – | – | CCCNc1nc(Nc2ccc(C(N)=O)cc2)ncc1C(=O)Nc1cccc(NC2CCCN(C(=O)/C=C/CN(C)C)CC2)c1 (stereo not drawn) [Compound 3-21] | –
0.1 to 1 µM | 0.01 to 0.1 µM | < 0.01 µM | – | – | CCCNc1nc(Nc2ccc(C(N)=O)cc2)ncc1C(=O)NCCCNC(C)(C)CNC(=O)/C=C/CN(C)C [Compound 3-24] | –
– | – | < 0.01 µM | 0.01 to 0.1 µM | 0.01 to 0.1 µM | CCCNc1nc(Nc2ccc(C(N)=O)cc2)ncc1C(=O)N[C@H]1CCC[C@H](Nc2ccccc2NC(=O)/C=C/CN(C)C)C1 [Compound 3-27] | –
– | – | < 0.01 µM | 0.1 to 1 µM | 0.1 to 1 µM | CCCNc1nc(Nc2ccc(C(N)=O)cc2)ncc1C(=O)N[C@@H]1CCC[C@H](Nc2ccccc2NC(=O)/C=C/CN(C)C)C1 [Compound 3-28] | –
0.01 to 0.1 µM | 0.01 to 0.1 µM | < 0.01 µM | – | – | CCCNc1nc(Nc2ccc(C(N)=O)cc2)ncc1C(=O)NCCCNc1ncccc1NC(=O)/C=C/CN(C)C [Compound 3-29] | –
0.01 to 0.1 µM | < 0.01 µM | < 0.01 µM | – | – | CCCNc1nc(Nc2ccc(C(N)=O)cc2)ncc1C(=O)Nc1cccc(NC(=O)[C@@H]2CCCN2C(=O)/C=C/CN(C)C)c1 [Compound 3-30] | –
0.1 to 1 µM | 0.1 to 1 µM | < 0.01 µM | – | – | CCCNc1nc(Nc2ccc(C(N)=O)cc2)ncc1C(=O)Nc1cccc(N2CCN(C(=O)/C=C/CN(C)C)CC2)c1 [Compound 3-31] | –
0.01 to 0.1 µM | 0.01 to 0.1 µM | < 0.01 µM | – | – | CCCNc1nc(Nc2ccc(C(N)=O)cc2)ncc1C(=O)Nc1cccc(NC(=O)[C@H](C)N(C)C(=O)/C=C/CN2CCNCC2)c1 [Compound 4-1, (S,E)-2-((4-carbamoylphenyl)amino)-N-(3-(2-(N-methyl-4-(piperazin-1-yl)-2-butenamido)propanamido)phenyl)-4-(propylamino)pyrimidine-5-carboxamide] | –
< 0.01 µM | < 0.01 µM | < 0.01 µM | – | – | CCCNc1nc(Nc2ccc(C(N)=O)cc2)ncc1C(=O)Nc1cccc(NC(=O)[C@H](C)N(C)C(=O)/C=C/CNC)c1 [Compound 4-2] | –
< 0.01 µM | < 0.01 µM | < 0.01 µM | – | – | CCCNc1nc(Nc2ccc(C(N)=O)cc2)ncc1C(=O)Nc1cccc(NC(=O)[C@H](C)N(C)C(=O)/C=C/CN(C)CC)c1 [Compound 4-3] | –
< 0.01 µM | < 0.01 µM | < 0.01 µM | – | – | CCCNc1nc(Nc2ccc(C(N)=O)cc2)ncc1C(=O)Nc1cccc(NC(=O)[C@H](C)N(C)C(=O)/C=C/CNC(C)(C)C)c1 [Compound 4-4] | –
< 0.01 µM | < 0.01 µM | < 0.01 µM | – | – | CCCNc1nc(Nc2ccc(C(N)=O)cc2)ncc1C(=O)Nc1cccc(NC(=O)[C@H](C)N(C)C(=O)/C=C/CN2CC(O)C2)c1 [Compound 4-5] | –
< 0.01 µM | < 0.01 µM | < 0.01 µM | – | – | CCCNc1nc(Nc2ccc(C(N)=O)cc2)ncc1C(=O)Nc1cccc(NC(=O)[C@H](C)N(C)C(=O)/C=C/CN(C(C)C)C(C)C)c1 [Compound 4-7] | –
< 0.01 µM | < 0.01 µM | < 0.01 µM | – | – | CCCNc1nc(Nc2ccc(C(N)=O)cc2)ncc1C(=O)Nc1cccc(NC(=O)[C@H](C)N(C)C(=O)/C=C/CN(CC)CC)c1 [Compound 4-8, (S,E)-2-((4-Carbamoylphenyl)amino)-N-(3-(2-(4-(diethylamino)-N-methyl-2-butenamido)propanamido)phenyl)-4-(propylamino)pyrimidine-5-carboxamide] | –
< 0.01 µM | < 0.01 µM | < 0.01 µM | – | – | CCCNc1nc(Nc2ccc(C(N)=O)cc2)ncc1C(=O)Nc1cccc(NC(=O)[C@H](C)N(C)C(=O)/C=C/CN(C)CCO)c1 [Compound 4-9] | –
0.01 to 0.1 µM | 0.01 to 0.1 µM | < 0.01 µM | – | – | CCCNc1nc(Nc2ccc(C(N)=O)cc2)ncc1C(=O)Nc1cccc(NC(=O)[C@H](C)N(C)C(=O)/C=C/CNCC(F)(F)F)c1 [Compound 4-13] | –
< 0.01 µM | < 0.01 µM | < 0.01 µM | – | – | CCCNc1nc(Nc2ccc(C(N)=O)cc2)ncc1C(=O)Nc1cccc(NC(=O)[C@H](C)N(C)C(=O)/C=C/C(C)N(C)C)c1 (stereo partly drawn) [Compound 4-14] | –
0.1 to 1 µM | 0.01 to 0.1 µM | < 0.01 µM | – | – | CCCNc1nc(Nc2ccc(C(N)=O)cc2)ncc1C(=O)Nc1cccc(NC(=O)[C@H](C)N(C)C(=O)/C=C/C(CC)N(C)C)c1 (stereo partly drawn) [Compound 4-15] | –
< 0.01 µM | < 0.01 µM | < 0.01 µM | – | – | CCCNc1nc(Nc2ccc(C(N)=O)cc2)ncc1C(=O)NCCCNC(=O)[C@H](C)N(C)C(=O)/C=C/CN(C)C [Compound 5-1, (S,E)-2-((4-carbamoylphenyl)amino)-N-(3-(2-(4-(dimethylamino)-N-methyl-2-butenamido)propaneamido)propyl)-4-(propylamino)pyrimidine-5-carboxamide] | –
0.01 to 0.1 µM | 0.01 to 0.1 µM | < 0.01 µM | – | – | C=CC(=O)N(C)CC(=O)NCCCNC(=O)c1cnc(Nc2ccc(C(N)=O)cc2)nc1NCCC [Compound 5-2] | –
0.01 to 0.1 µM | 0.01 to 0.1 µM | < 0.01 µM | – | – | C=CC(=O)N(C)[C@@H](C)C(=O)NCCCNC(=O)c1cnc(Nc2ccc(C(N)=O)cc2)nc1NCCC [Compound 5-3] | –
0.1 to 1 µM | 0.1 to 1 µM | < 0.01 µM | – | – | CCCNc1nc(Nc2ccc(C(N)=O)cc2)ncc1C(=O)NCCCNC(=O)[C@H](C)NC(=O)/C=C/CN(C)C [Compound 5-4] | –
0.01 to 0.1 µM | 0.01 to 0.1 µM | < 0.01 µM | – | – | CCCNc1nc(Nc2ccc(C(N)=O)cc2)ncc1C(=O)NCCCNC(=O)CN(C)C(=O)/C=C/CN(C)C [Compound 5-5] | –

Structure (SMILES) | IC50 ([1]; Homo sapiens, MOLM-13, 72 h) | IC50 ([2]; Homo sapiens, MV4-11, 72 h) | IC50 [3, 4] | IC50 [1] | IC50 [2] | IC50 ([3]; FLT3 (WT) enzyme inhibition activity)
CCCNc1nc(Nc2ccc(C(N)=O)cc2)ncc1C(=O)Nc1cccc(NC(=O)[C@H](C)N(C)C(=O)/C=C/CNCCF)c1 [Compound 4-10] | < 0.01 µM | < 0.01 µM | – | – | – | < 0.01 µM
